According to article PMC12811658, “Design, Synthesis, and Structural Evolution of Pseudo‐Natural Product IDO1 Inhibitors and Degraders” (Angewandte Chemie (International Ed. in English), 2025):
Where two headings read alike, the source gives them in different places.

Experiments:
[1] = target: T1, recombinant full-length human IDO1 (Homo sapiens, UniProt P14902); test: Thermal shift assay (nanoDSF); type: binding; conditions: 50 µM, 3 h at 37 °C
T1 construct: The GST-tag of IDO1 was removed to obtain untagged full-length IDO1l using PreScission protease; GST (N, cleaved yes); made in house; own inference
T1 sequence (P14902 whole entry): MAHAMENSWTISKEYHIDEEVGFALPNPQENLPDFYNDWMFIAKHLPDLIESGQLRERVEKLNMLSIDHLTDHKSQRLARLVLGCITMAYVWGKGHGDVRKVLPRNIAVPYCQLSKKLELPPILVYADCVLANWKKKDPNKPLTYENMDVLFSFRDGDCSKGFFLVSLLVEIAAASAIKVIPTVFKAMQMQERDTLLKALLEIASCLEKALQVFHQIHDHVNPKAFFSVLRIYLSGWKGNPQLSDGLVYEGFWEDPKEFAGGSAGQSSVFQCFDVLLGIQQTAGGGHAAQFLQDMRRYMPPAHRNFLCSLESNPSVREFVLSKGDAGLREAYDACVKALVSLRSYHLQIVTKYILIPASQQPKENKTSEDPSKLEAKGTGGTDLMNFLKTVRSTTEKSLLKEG
Description: Incubation at 37 °C for 3 h. Representative data for n = 3. c) Time‐course of heme displacement from IDO1 detected by the absorbance at the Soret peak (404 nm) as a function of time. […] All curves were fit using a one‐site model with N = 1 and defined IDO1 concentration. Left plots show baseline corrected data, while right plots show integrated binding isotherms versus iDegs/IDO1 ratio. IDO1 protein (125 µM) was titrated into the stirred sample cell containing iDegs (25 µM, except for iDeg‐8 at 50 µM). Representative data for n = 3, except for iDeg‐9 (n = 2). g)–i) In vivo activity of iDeg‐6. NSG immunodeficient mice were injected with SKOV‐3 cells. Mice were treated with 18 intraperitoneal injections of iDeg‐6 (30 mg kg^−1) or vehicle. The pharmacological treatment was twice daily. Tumor volume was determined weekly by digital caliper. g) SKOV‐3 tumor growth curves in iDeg‐6‐treated mice (n = 12, green lines) or vehicle‐treated mice (n = 13, gray lines). Statistical analysis was performed by two‐way ANOVA: ****p < 0.001. h) Body weight changes during treatment window (mean values ± range). i) Survival data are shown by Kaplan‐Meier survival analysis. Mantel–Haenszel statistical analysis: p < 0.0001). […]
The test compounds or DMSO (vehicle control) were incubated with recombinant full-length human IDO1 (rhIDO1; 10 µM) in 50 mM potassium phosphate buffer (pH 6.5) for 3 h at 37 °C. Following incubation, samples were centrifuged at 5,000 × g for 10 minutes, then the protein-compound solutions were loaded into capillaries, and thermal unfolding was assessed using the Prometheus Panta system (NanoTemper® Technologies, Germany). Fluorescence intensities at 330 nm and 350 nm were recorded at temperature increments of 0.115 °C from 20 °C to 90 °C. Melting temperatures (Tm) were automatically calculated using Prometheus NT.48 analysis software. The resulting thermal denaturation curves, with Tm defined as the temperature at the maximum derivative of the unfolding transition, were visualized and analysed using GraphPad Prism version 9.0 (GraphPad Software, USA).

[2] = tested on: Kyn levels in BxPC3 cells (kynurenine generated by IDO1); test: Cellular Kyn assay (automated Kyn screening assay); type: cell-based; conditions: IFN-γ, L-Trp and compounds 48 h, mean ± SD, read-out: IC50 (Kyn assay), reduction of kynurenine levels
[3] = target: IDO1 protein levels in BxPC3 cells (Homo sapiens, UniProt P14902); test: IDO1 immunoblotting (degradation); type: cell-based; set-up: endogenous in cells; host or cells: BxPC3 (DSMZ), IFN-γ stimulated; conditions: for IDO1 protein level by immunoblotting (in words): IFN-γ 24 h, washout, compounds 24 h; for Max. degradation (%): 24 h incubation, mean ± SD
Chain of IDO1 protein levels in BxPC3 cells (P14902 whole entry): as above

recombinant human IDO1 = target: T2, recombinant human IDO1 (Homo sapiens, UniProt P14902); test: IDO1 enzymatic assay in vitro; type: biochemical; conditions: for IDO1 activity IC50 [µM] (in vitro assay) / IC50: determined if inhibition at 14 µM higher than 50%
T2 construct: The GST-tag of IDO1 was removed to obtain untagged full-length IDO1l using PreScission protease; GST (N, cleaved yes); made in house; own inference
T2 sequence (P14902 whole entry): as above

[4] = target: T3, IDO1 protein in IFN-γ stimulated HeLa cells (Homo sapiens, UniProt P14902); test: IDO1 immunostaining (immunofluorescence); type: cell-based; conditions: 24 h
T3 construct: endogenous in cells; host or cells: HeLa (DSMZ), IFN-γ stimulated
T3 sequence (P14902 whole entry): as above
Description: Figure 3 Comparison of IDO1 degradation efficiency for selected compounds. a) Detection of IDO1 levels using immunostaining. IFN‐γ stimulated HeLa cells were treated with the compounds for 24 h. IDO1 protein abundance was detected with IDO1 antibody. Data are mean values ± SD, n = 3. b) IDO1 protein levels in BxPC3 cells upon compounds treatment were detected using immunoblotting. BxPC3 cells were treated with IFN‐γ for 24 h prior to washout, followed by addition of compounds. Representative blot and quantified band intensities are shown (mean values ± SD, n = 3). See Figure S11a S12a for the uncropped blots. c) Key functions of hit compounds that influence degradation efficiency. d) Heatmap for IDO degradation efficiency. IDO1 levels were monitored as described in (c). See Table S1 for mean values and Figure S11b for the uncropped blots. e)–g) Dose dependent degradation of IDO1 protein in BxPC3 cells treated with iDeg‐7–9 and detected as described in (c). Representative data of n = 3 except for iDeg‐9 (n = 4). See Figure S12 S13 for the uncropped blots. h) Quantification of IDO1 protein levels from e‐g (mean values ± SD, n = 3 except for iDeg‐9 (n = 4). i) Tabulated inhibition and degradation ability of iDeg‐6–9. ND: not detected. j) Volcano plot of iDeg‐6‐induced changes on the global proteome. SKOV‐3 cells were treated with 10 µM iDeg‐6 or DMSO for 4 h followed by protein extraction, tryptic digest and LC‐MS/MS analysis (n = 4). Plot generated using UMSAP (T 0 = 0.5, S 0 = 0.5).
IFN-γ-stimulated Hela cells (5 ng/mL IFN-γ) were seeded in 96-well plates and incubated for 24 h. Subsequently, IFN-γ was washed out and cells were treated with compounds for additional 24 h. Cells were then washed once with PBS and fixed with 3.7% paraformaldehyde for 10 min at room temperature. Cells were washed three times with ice-cold PBS. […] Images were analyzed by SpectraMax Paradigm microplate reader (Molecular Devices) to extract IDO1 fluorescence intensity as well as the cell count. IDO1 fluorescence intensity was normalized to cell count. […]

[5] = target: T4, heme-bound IDO1 (holo-IDO1) (Homo sapiens, UniProt P14902); test: UV/Vis detection of heme-bound IDO1 (heme displacement); type: binding; conditions: 50 µM; for heme displacement from holo-IDO1 (in words): 37 °C, 3 h, Soret band 404 nm; for time course of heme displacement (in words): absorbance at 404 nm over time, compared to iDeg-6 and -8
T4 construct: The GST-tag of IDO1 was removed to obtain untagged full-length IDO1l using PreScission protease; GST (N, cleaved yes); made in house; own inference
T4 sequence (P14902 whole entry): as above
Description: (§1) Incubation at 37 °C for 3 h. Representative data for n = 3. c) Time‐course of heme displacement from IDO1 detected by the absorbance at the Soret peak (404 nm) as a function of time. […] All curves were fit using a one‐site model with N = 1 and defined IDO1 concentration. Left plots show baseline corrected data, while right plots show integrated binding isotherms versus iDegs/IDO1 ratio. IDO1 protein (125 µM) was titrated into the stirred sample cell containing iDegs (25 µM, except for iDeg‐8 at 50 µM). Representative data for n = 3, except for iDeg‐9 (n = 2). g)–i) In vivo activity of iDeg‐6. NSG immunodeficient mice were injected with SKOV‐3 cells. Mice were treated with 18 intraperitoneal injections of iDeg‐6 (30 mg kg^−1) or vehicle. The pharmacological treatment was twice daily. Tumor volume was determined weekly by digital caliper. g) SKOV‐3 tumor growth curves in iDeg‐6‐treated mice (n = 12, green lines) or vehicle‐treated mice (n = 13, gray lines). Statistical analysis was performed by two‐way ANOVA: ****p < 0.001. h) Body weight changes during treatment window (mean values ± range). i) Survival data are shown by Kaplan‐Meier survival analysis. Mantel–Haenszel statistical analysis: p < 0.0001).
Representative data of n=3 biological replicates. c, IDO1 was incubated with compounds (50 µM) or DMSO (control). UV/VIS spectra were acquired at five time points to monitor heme loss over time. Data are representative of two replicates.
The test compounds or DMSO (vehicle control) were incubated with recombinant full-length human IDO1 (rhIDO1; 10 µM) in 50 mM potassium phosphate buffer (pH 6.5) for 3 h at 37 °C. Following incubation, samples were centrifuged at 5,000 × g for 10 minutes. UV/Vis absorption spectra were then recorded from 250 nm to 650 nm in 1 nm increments using UV-transparent microplates (UV-STAR®, Greiner Bio-One, Austria) on a Spark® multimode microplate reader (Tecan, Austria). Absorbance values were analyzed at 404 nm (A404), and were plotted using GraphPad Prism version 9.0 (GraphPad Software, USA).

[6] = target: T1, recombinant full-length human IDO1; test: Isothermal titration calorimetry (ITC); type: binding; conditions: 25 °C
Description: as §1
ITC was performed using the MicroCal PEAQ-ITC system (Malvern) at 25 °C. Recombinant human full-length IDO1 (rhIDO1) was buffer-exchanged into 100 mM phosphate buffer (50 mM KH₂PO₄ and 50 mM K₂HPO₄, pH 6.57) with 1 mM TECP using a 10 K Amicon® Ultra centrifugal filter (Millipore). The buffer exchange was repeated ten times to ensure complete removal of interfering components. The final protein sample was diluted in the same phosphate buffer prior to titration.125 μM protein in 100 mM phosphate buffer was loaded into the syringe, while 25 μM compound (except for iDeg-8, 50 μM) in 100 mM phosphate buffer was loaded to the cell. All samples were adjusted to 25 °C and degassed before loading. Titrations were performed at 25 °C with one injection of 0.4 µL, followed by 18 injections of 2 µL. Experiments were performed with three biological replicates except for iDeg-9 with two biological replicates. Data were analyzed using the MicroCal PEAQ-ITC Analysis software and were plotted using GraphPad Prism 9.0 (GraphPad, USA).

[7] = at 14 µM, pre-incubation 37 °C 45 min, mean ± SD

SMILES	shift in IDO1 melting temperature ΔTm / binding in TSA (in words) [1]	IC50 [2]	IDO1 protein level by immunoblotting (in words) ([3]; BxPC3 cells)	IDO1 activity Inhibition (%) (recombinant human IDO1; [7])	IDO1 activity IC50 [µM] (in vitro assay) (recombinant human IDO1; pre-incubation 37 °C 45 min)	in vitro IDO1 inhibition (in words) (recombinant human IDO1; up to 14 µM, incubated with IDO1 for 45 min)	IDO1 staining fluorescence intensity (in words) [4]	heme displacement from holo-IDO1 (in words) [5]	IC50 ([2]; Homo sapiens, BXPC-3, 48 h)	Max. degradation (%) ([3]; 10 nM)	Max. degradation (%) ([3]; 100 nM)	Dmax at 0.1 µM ([3]; BXPC-3, @100 nM, BxPC3 cells)	inhibition at 14 µM (recombinant human IDO1; [7])	IC50 (recombinant human IDO1; pre-incubation 37 °C 45 min)	time course of heme displacement (in words) [5]	-TΔS (ITC) [6]	Kd [6]	ΔG (ITC) [6]	ΔH (ITC) [6]	Kd ([6]; one-site model)
CC(C)(C)c1ccc(S(=O)(=O)N2CC[C@@]3(C2)[C@@H]2C[C@H](C[C@H]3OC(=O)Nc3ccc(I)cc3)C2(C)C)cc1 [compound 22, (1R,2S,3R,5R)-1'-((4-(tert-butyl)phenyl)sulfonyl)-6,6-dimethylspiro[bicyclo[3.1.1]heptane-2,3'-pyrrolidin]-3-yl (4-iodophenyl)carbamate]	identical binding in the TSA assay	490 ± 60 nM	did not reduce the IDO1 protein level	ns (not significant)	– (Inactive: >75% Kyn level observed up to a concentration of 14 µM and no IC50 value obtained)	no activity	did not induce IDO1 protein degradation	displaced heme to a similar extent												
C#Cc1ccc(NC(=O)OC[C@]23CN(S(=O)(=O)c4ccc(C(C)(C)C(=O)O)cc4C)C[C@H]2C[C@H]2C[C@@H]3C2(C)C)cc1 [102 (iDeg-9), 2-(4-(((3aS,4R,6R,7aS)-3a-((((4-ethynylphenyl)carbamoyl)oxy)methyl)-5,5-dimethyloctahydro-2H-4,6-methanoisoindol-2-yl)sulfonyl)-3-methylphenyl)-2-methylpropanoic acid]	highest ΔT m value		barely affected the IDO1 level					most efficient heme displacement	5 nM	20 ± 9 (9) %	21 ± 20 (9) %	21%	64 ± 1%	0.089 ± 0.03 µM	faster	15.6 kcal/mol	215 nM	-9.1 kcal/mol	-24.7 ± 0.3 kcal/mol	220 ± 20 nM
C#Cc1ccc(NC(=O)OC[C@]23CN(S(=O)(=O)c4ccc(C(C)(C)C(=O)O)cc4)C[C@H]2C[C@H]2C[C@@H]3C2(C)C)cc1 [101 (iDeg-7), 2-(4-(((3aS,4R,6R,7aS)-3a-((((4-ethynylphenyl)carbamoyl)oxy)methyl)-5,5-dimethyloctahydro-2H-4,6-methanoisoindol-2-yl)sulfonyl)phenyl)-2-methylpropanoic acid]			only moderately reduced the IDO1 protein level					most efficient heme displacement	21 ± 6 nM	36 ± 10 (5) %	54 ± 8 (5) %		75 ± 4%	0.31 ± 0.06 µM	faster	13.2 kcal/mol	122 nM	-9.4 kcal/mol	-22.6 ± 0.4 kcal/mol	120 ± 20 nM
Cc1ccc(NC(=O)OC[C@]23CN(S(=O)(=O)c4ccc(C(C)(C)C)cc4)C[C@H]2C[C@H]2C[C@@H]3C2(C)C)cc1 [10 (iDeg-1), ((3aS,4R,6R,7aS)-2-((4-(tert-butyl)phenyl)sulfonyl)-5,5-dimethyloctahydro-3aH-4,6-methanoisoindol-3a-yl)methyl p-tolylcarbamate]			modulate IDO1 abundance		– (Inactive: >75% Kyn level observed up to a concentration of 14 µM and no IC50 value obtained)		reduced the fluorescence intensity of the IDO1 staining		830 ± 310 nM				< 25%							
